Among the data in patent US8211903B2, “Substituted pyrimido isoquinoline derivatives” (Mitsubishi Tanabe Pharma Corporation, priority 2008, dated 2012) are IC50 and melting point values, retold here.

Structures are written as SMILES. Counter-ions that a name gives are not always drawn.

In one data set the target is GSK3β (Homo sapiens, UniProt P49841). Nature of the data set: Inhibitory activity against GSK3β (33P-ATP phosphorylation of prephosphorylated GS1 peptide). Format: biochemical. Particulars: protocol 3: 7.5 μM GS1 peptide, 10 μM ATP, 50 mM Hepes pH 7.2, one hour at room temperature. How it is done: Four different protocols can be used.
Chain of GSK3β (P49841 whole entry): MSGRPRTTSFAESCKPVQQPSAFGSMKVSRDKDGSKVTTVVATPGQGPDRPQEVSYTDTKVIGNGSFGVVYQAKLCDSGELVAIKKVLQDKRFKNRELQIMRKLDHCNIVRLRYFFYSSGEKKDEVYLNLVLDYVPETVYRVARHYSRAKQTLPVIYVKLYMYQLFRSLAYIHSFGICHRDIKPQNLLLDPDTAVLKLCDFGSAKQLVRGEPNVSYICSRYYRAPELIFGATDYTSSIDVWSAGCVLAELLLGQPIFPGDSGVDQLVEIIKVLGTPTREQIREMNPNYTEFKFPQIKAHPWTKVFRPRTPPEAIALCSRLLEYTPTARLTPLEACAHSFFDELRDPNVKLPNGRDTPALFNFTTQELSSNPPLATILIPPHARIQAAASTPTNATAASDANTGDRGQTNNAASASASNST
In a first protocol: 7.5 μM of prephosphorylated GS1 peptide and 10 μM ATP (containing 300,000 cpm of ^33P-ATP) were incubated in 25 mM Tris-HCl, pH 7.5, 0.6 mM DTT, 6 mM MgCl2, 0.6 mM EGTA, 0.05 mg/ml BSA buffer for 1 hour at room temperature in the presence of GSK3beta (total reaction volume: 100 microliters).
In a second protocol: 4.1 μM of prephosphorylated GS1 peptide and 42 μM ATP (containing 260,000 cpm ^33P-ATP) were incubated in 80 mM Mes-NaOH, pH 6.5, 1 mM Mg acetate, 0.5 mM EGTA, 5 mM 2-mercaptoethanol, 0.02% Tween 20, 10% glycerol buffer for 2 hours at room temperature in the presence of GSK3beta.
In a third protocol: 7.5 μM of prephosphorylated GS1 peptide and 10 μM ATP (containing 300,000 cpm of ^33P-ATP) were incubated in 50 mM Hepes, pH 7.2, 1 mM DTT, 1 mM MgCl2, 1 mM EGTA, 0.01% Tween 20 buffer for one hour at room temperature in the presence of GSK3beta (total reaction volume: 100 microliters). […]
The reaction was stopped with 100 microliters of a solution made of 25 g polyphosphoric acid (85% P2O5), 126 ml 85% H3PO4, H2O to 500 ml and then diluted to 1:100 before use. […] Incorporated ^33P radioactivity was determined by liquid scintillation spectrometry. […]
With `O=c1cc(-c2ccncc2)nc2c3ccccc3ccn12` [compound 1, 2-Pyridin-4-yl-pyrimido[2,1-a]isoquinolin-4-one], the IC50 was found to be 330 nM.
Regarding `Nc1cccc2c1ccn1c(=O)cc(-c3ccncc3)nc21` [compound 5, 8-Amino-2-pyridin-4-yl-pyrimido[2,1-a]isoquinolin-4-one], the IC50 came to 170 nM.

System in another data set: not given
Experiment: not given
Conditions: not given
For the compound `O=c1cc(-c2ccncc2)nc2c3cccc([N+](=O)[O-])c3ccn12` (as salt: hydrochloride) [compound 4, 8-Nitro-2-pyridin-4-yl-pyrimido[2,1-a]isoquinolin-4-one], the melting point is 270 to 272 °C.
The compound `O=c1cc(-c2ccncc2)nc2c3cc(O)ccc3ccn12` (as salt: oxalate) [compound 6, 10-Hydroxy-2-pyridin-4-yl-pyrimido[2,1-a]isoquinolin-4-one] registered a melting point of 368 to 370 °C.
`Nc1cccc2c1ccn1c(=O)cc(-c3ccncc3)nc21` [compound 5, 8-Amino-2-pyridin-4-yl-pyrimido[2,1-a]isoquinolin-4-one]: the melting point lay within 329 to 331 °C.
Still for that read-out and setting: the same measure for `COc1ccc2ccn3c(=O)cc(-c4ccncn4)nc3c2c1` [compound 7, 10-Methoxy-2-pyrimidin-4-yl-pyrimido[2,1-a]isoquinolin-4-one]: 302 to 304 °C; for `COc1cc2c(cc1OC)-c1nc(-c3ccncc3)cc(=O)n1CC2` [compound 9, 9,10-Dimethoxy-2-pyridin-4-yl-6,7-dihydro-pyrimido[2,1-a]isoquinolin-4-one]: 271 to 273 °C.
